PubChem BioAssay AID2060890 (Molecular Pharmacology Branch, DTP, NCI, 2025)

Tested on: LG0703-F948-PDC complex spheroid viability
Experiment: Anticancer human tumor LG0703-F948-PDC patient-derived lung adenocarcinoma cell line growth inhibition [RAS]
Settings: for viability, T/C: stronger effect = lower value
Text: RAS pathway inhibitors in Combinations in Complex Spheroids
A high-throughput screen of multi-cell type tumor spheroids was designed to identify active combinations of RAS pathway inhibitors and targeted small molecules. Complex spheroids include a stromal component modeled by human endothelial cells (HUVEC) and fibroblasts modeled by human mesenchymal stem cells (MSCs). The concentration ranges selected for each drug and investigational agent were based upon clinically achievable concentrations if the clinical Cmax of the agent was known.
Compounds. The drugs and investigational agents: abemaciclib (NSC768073), cobimetinib (NSC768068), divarasib (GDC6063, NSC841802), docetaxel (NSC628503), GDC-1971 (RLY-1971, NSC841576), gemcitabine (NSC613327), inavolisib (NSC800729), ipatasertib (NSC767898), KB-0742 (NSC834161), MRTX-1133 (NSC836407), osimertinib (NSC779217), RMC-4630 (NSC839698), RMC-6236 (NSC851965), RMC-6291 (NSC852671), Ro-3306 (NSC812927), sapanisertib (NSC764658), SN-38 (NSC673596), staurosporine (NSC755774), SY5609 (NSC837396), and tovorafenib (DAY101, NSC766906), were obtained from the National Cancer Institute (NCI) Developmental Therapeutics Program Chemical Repository. The FDA-approved anticancer drug set is available from the NCI Developmental Therapeutics Program. […] The stock solutions were prepared in dimethyl sulfoxide (DMSO, Sigma-Aldrich, St. Louis, MO, cat. D2650) at 800-fold the tested concentration and stored at -70 degrees C prior to their use. All drugs and investigational agents were tested over a range starting from a high concentration at or near the clinical Cmax and decreasing in half-log increments. If the clinical Cmax for an agent had not been determined, the highest concentration tested was 10 microM.
Cell Culture. All cells were maintained in an incubator at 37 degrees C and 5% CO2 with 95% humidity. The PDC lines were cultured according to standard operating procedures established by the NCI PDMR. All PDCs were thawed and cultured in Matrigel-coated flasks prepared with a working solution of 1X Ham's F-12 nutrient mix, without supplementation (Invitrogen, Waltham, MA, cat. 11765054), 100 U/mL penicillin-streptomycin (Invitrogen, cat. 15140122), and 2.5% Matrigel (Corning Inc., Corning, NY, cat. 354248) for the first three passages. The 362531-283-R-J2-PDC and 782815-120-R-J1-PDC lines were cultured in 6C/Colon 1B media, which includes advanced DMEM/F-12 (Thermo Fisher Scientific, cat. 12634028), 10 mM HEPES (Thermo Fisher Scientific, cat. 15630080), 1X GlutaMAX supplement (Thermo Fisher Scientific, cat. 35050061), 0.1 mg/mL primocin (InvivoGen, San Diego, CA, cat. ant-pm-2), 10% defined fetal bovine serum, heat inactivated (HyClone Laboratories Inc., Logan, UT, cat. SH30070.03HI), 50% L-WRN conditioned media (ATCC, cat. CRL-3276), 1.25 mM N-Acetyl-L-cysteine (Sigma-Aldrich, cat. A9165), 10 mM nicotinamide (Sigma-Aldrich, cat. N0636), 1X B-27 supplement (Thermo Fisher Scientific, cat. 17504044), 1X N-2 supplement (Thermo Fisher Scientific, cat. 17502048), 50 ng/mL human EGF (Thermo Fisher Scientific, cat. PHG0311), and 10 microM Y-27632 dihydrochloride (Tocris Bioscience, cat. 1254). The K12877-001-R-J1-PDC line was cultured in 6I media, which includes all 6C/Colon 1B media plus 10 ng/mL human FGF-10 (PeproTech, cat. 100-26), 1 ng/mL human FGF-2 (PeproTech, cat. 100-18B), 1 µM prostaglandin E2 (Tocris Bioscience, cat. 2296), […] hydrocortisone (Sigma-Aldrich, cat. H4001), and […] bovine insulin (Sigma-Aldrich, cat. I6634). The K86415-001-R-J1-PDC line was cultured in 6D media, which includes all 6C/Colon 1B media components minus the L-WRN conditioned media. The 485176-168-R4-J1-PDC was cultured in PANC media, which includes all 6C/Colon 1B media plus 100 ng/mL human FGF-10 (PeproTech, cat. 100-26), 500 nM SB-431542 (Selleckchem, cat. S1067), and 10 nM gastrin (Tocris Bioscience, cat. 3006). […]

[1] = curve of first compound, second compound 0.000949 µM
[2] = curve of first compound, second compound 0.003 µM
[3] = curve of first compound, second compound 0.00949 µM
[4] = curve of first compound, second compound 0.03 µM
[5] = curve of first compound, second compound 0.0949 µM
[6] = curve of first compound, second compound 0.3 µM
[7] = second compound 0.000949 µM, first compound 0.0316 µM
[8] = second compound 0.000949 µM, first compound 0.1 µM
[9] = second compound 0.000949 µM, first compound 0.316 µM
[10] = second compound 0.000949 µM, first compound 1 µM
[11] = second compound 0.003 µM, first compound 0.0316 µM
[12] = second compound 0.003 µM, first compound 0.1 µM
[13] = second compound 0.003 µM, first compound 0.316 µM
[14] = second compound 0.003 µM, first compound 1 µM
[15] = second compound 0.00949 µM, first compound 0.0316 µM
[16] = second compound 0.00949 µM, first compound 0.1 µM
[17] = second compound 0.00949 µM, first compound 0.316 µM
[18] = second compound 0.00949 µM, first compound 1 µM
[19] = second compound 0.03 µM, first compound 0.0316 µM
[20] = second compound 0.03 µM, first compound 0.1 µM
[21] = second compound 0.03 µM, first compound 0.316 µM
[22] = second compound 0.03 µM, first compound 1 µM
[23] = second compound 0.0949 µM, first compound 0.0316 µM
[24] = second compound 0.0949 µM, first compound 0.1 µM
[25] = second compound 0.0949 µM, first compound 0.316 µM
[26] = second compound 0.0949 µM, first compound 1 µM
[27] = second compound 0.3 µM, first compound 0.0316 µM
[28] = second compound 0.3 µM, first compound 0.1 µM
[29] = second compound 0.3 µM, first compound 0.316 µM
[30] = second compound 0.3 µM, first compound 1 µM
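For viability, T/C in this document: 100% = DMSO vehicle wells.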

With `C=CC(=O)Nc1cc(Nc2nccc(-c3cn(C)c4ccccc34)n2)c(OC)cc1N(C)CCN(C)C` + CCn1c(-c2cccnc2C(C)OC)c2c3cc(ccc31)N1CCOC(CC(NC(=O)C(C(C)C)N(C)C(=O)C3(F)CCN(C(=O)C#CC(C)(C)N(C)C)CC3)C(=O)N3CCCC(N3)C(=O)OCC(C)(C)C2)C1 the IC50 [1] was 13.1 nM, the IC50 [2] was 13.9 nM and the IC50 [3] was 12.1 nM. The IC50 [4] was 9.92 nM, the IC50 [5] was 4.89 nM and the IC50 [6] was < 3.16 nM. It also gave a viability, T/C (second compound 0.000949 µM, first compound 0.00316 µM) of 78.5%, a viability, T/C (second compound 0.000949 µM, first compound 0.01 µM) of 56.9% and a viability, T/C [7] of 27.3%. For the same molecule, the viability, T/C [8] was 20.5%, the viability, T/C [9] was 19.1% and the viability, T/C [10] was 13.9%. The viability, T/C (second compound 0.003 µM, first compound 0.00316 µM) was 88.6%, the viability, T/C (second compound 0.003 µM, first compound 0.01 µM) was 57.5% and the viability, T/C [11] was 31.1%. The viability, T/C [12] was 21.5%, the viability, T/C [13] was 16.2% and the viability, T/C [14] was 15.6%. The viability, T/C (second compound 0.00949 µM, first compound 0.00316 µM) was 83.4%, the viability, T/C (second compound 0.00949 µM, first compound 0.01 µM) was 55.6% and the viability, T/C [15] was 22.3%. For the same molecule, the viability, T/C [16] was 18.5%, the viability, T/C [17] was 19.7% and the viability, T/C [18] was 15.2%. The viability, T/C (second compound 0.03 µM, first compound 0.00316 µM) was 82.6%, the viability, T/C (second compound 0.03 µM, first compound 0.01 µM) was 49.6% and the viability, T/C [19] was 26.6%. It also gave a viability, T/C [20] of 15.5%, a viability, T/C [21] of 17.4% and a viability, T/C [22] of 14.4%. It also gave a viability, T/C (second compound 0.0949 µM, first compound 0.00316 µM) of 60.2%, a viability, T/C (second compound 0.0949 µM, first compound 0.01 µM) of 33.1% and a viability, T/C [23] of 21.2%. It also gave a viability, T/C [24] of 14.9%, a viability, T/C [25] of 13.9% and a viability, T/C [26] of 12.1%. For the same molecule, the viability, T/C (second compound 0.3 µM, first compound 0.00316 µM) was 29.1%, the viability, T/C (second compound 0.3 µM, first compound 0.01 µM) was 17.5% and the viability, T/C [27] was 9.89%. The viability, T/C [28] was 9.16%, the viability, T/C [29] was 9.3% and the viability, T/C [30] was 13.5%.
For `NC1c2ccccc2OC12CCN(c1cnc3c(N4CCCc5ncccc54)n[nH]c3n1)CC2` (stereo unspecified) + CCn1c(-c2cccnc2C(C)OC)c2c3cc(ccc31)N1CCOC(CC(NC(=O)C(C(C)C)N(C)C(=O)C3(F)CCN(C(=O)C#CC(C)(C)N(C)C)CC3)C(=O)N3CCCC(N3)C(=O)OCC(C)(C)C2)C1, the IC50 [1] was 52.3 nM, the IC50 [2] was 46.2 nM and the IC50 [3] was 47.9 nM. The IC50 [4] was 38.7 nM, the IC50 [5] was < 31.6 nM and the IC50 [6] was < 31.6 nM. For the same molecule, the viability, T/C [7] was 55.4%, the viability, T/C [8] was 43.5% and the viability, T/C [9] was 22.8%. It also gave a viability, T/C [10] of 12.4%, a viability, T/C (second compound 0.000949 µM, first compound 3.16 µM) of 4.73% and a viability, T/C (second compound 0.000949 µM, first compound 10 µM) of 2.85%. For the same molecule, the viability, T/C [11] was 57.1%, the viability, T/C [12] was 35.3% and the viability, T/C [13] was 21.8%. For the same molecule, the viability, T/C [14] was 10.3%, the viability, T/C (second compound 0.003 µM, first compound 3.16 µM) was 6.54% and the viability, T/C (second compound 0.003 µM, first compound 10 µM) was 2.52%. It also gave a viability, T/C [15] of 59.1%, a viability, T/C [16] of 33.1% and a viability, T/C [17] of 20.6%. It also gave a viability, T/C [18] of 8.74%, a viability, T/C (second compound 0.00949 µM, first compound 3.16 µM) of 5.35% and a viability, T/C (second compound 0.00949 µM, first compound 10 µM) of 2.44%. For the same molecule, the viability, T/C [19] was 53.6%, the viability, T/C [20] was 33.8% and the viability, T/C [21] was 18.5%. For the same molecule, the viability, T/C [22] was 10.7%, the viability, T/C (second compound 0.03 µM, first compound 3.16 µM) was 4.93% and the viability, T/C (second compound 0.03 µM, first compound 10 µM) was 1.68%. The viability, T/C [23] was 42%, the viability, T/C [24] was 27.2% and the viability, T/C [25] was 12%. For the same molecule, the viability, T/C [26] was 5.4%, the viability, T/C (second compound 0.0949 µM, first compound 3.16 µM) was 2.95% and the viability, T/C (second compound 0.0949 µM, first compound 10 µM) was 1.32%. For the same molecule, the viability, T/C [27] was 25.2%, the viability, T/C [28] was 10.4% and the viability, T/C [29] was 7.14%. It also gave a viability, T/C [30] of 2.48%, a viability, T/C (second compound 0.3 µM, first compound 3.16 µM) of 2.04% and a viability, T/C (second compound 0.3 µM, first compound 10 µM) of 1.58%.
In the case of `CC(=O)OC12COC1CC(O)C1(C)C(=O)C(O)C3=C(C)C(OC(=O)C(O)C(NC(=O)OC(C)(C)C)c4ccccc4)CC(O)(C(OC(=O)c4ccccc4)C21)C3(C)C` (stereo unspecified), the viability, T/C (compound 0.0316 µM) is reported as 37.1% [middle of 4 runs], the viability, T/C (compound 0.1 µM) is reported as 33.9% [middle of 4 runs] and the viability, T/C (compound 0.316 µM) is reported as 39.8% [middle of 4 runs]. For the same molecule, the viability, T/C (compound 1 µM) was 39.7% [middle of 4 runs], the viability, T/C (compound 3.16 µM) was 43.2% [middle of 4 runs] and the viability, T/C (compound 10 µM) was 44.4% [middle of 4 runs]. For the same molecule, the IC50 (curve of compound) was < 31.6 nM.
